# Source: patent US20070292888A1, “Methods for Measuring Enzyme Activities in Cells, Blood, Tumors and Tissues” (GEN-PATH PHARMACEUTICALS, INC., priority 2004, published 2007)
# Experiments:
# transketolase (TK) = target: T1, transketolase (TK) (Mus musculus, UniProt P40142); test: Transketolase activity in blood, tumors and tissues of treated mice (fluorescence NADH assay); assay type: in vivo; conditions: 11 days i.p. twice per day
# T1 construct: from tissue; host or cells: mouse blood, spleen, tumor, kidney, lung, liver (crude lysates)
# T1 sequence (P40142 1-623): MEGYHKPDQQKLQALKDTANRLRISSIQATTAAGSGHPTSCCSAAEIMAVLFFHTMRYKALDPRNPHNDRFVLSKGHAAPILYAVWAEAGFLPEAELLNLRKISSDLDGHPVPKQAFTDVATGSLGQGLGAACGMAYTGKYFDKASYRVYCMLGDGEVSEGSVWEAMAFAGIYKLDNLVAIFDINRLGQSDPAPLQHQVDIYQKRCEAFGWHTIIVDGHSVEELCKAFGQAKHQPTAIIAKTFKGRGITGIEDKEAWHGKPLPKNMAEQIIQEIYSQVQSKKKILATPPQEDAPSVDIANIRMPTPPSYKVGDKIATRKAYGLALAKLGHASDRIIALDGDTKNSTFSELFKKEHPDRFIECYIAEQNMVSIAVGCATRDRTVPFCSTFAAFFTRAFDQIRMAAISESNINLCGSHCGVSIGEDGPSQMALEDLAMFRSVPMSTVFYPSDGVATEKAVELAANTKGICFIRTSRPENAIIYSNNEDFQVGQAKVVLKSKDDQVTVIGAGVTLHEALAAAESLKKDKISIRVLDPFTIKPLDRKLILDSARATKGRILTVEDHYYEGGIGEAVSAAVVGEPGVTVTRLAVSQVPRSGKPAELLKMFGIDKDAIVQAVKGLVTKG
# Experimental: Blood samples from mice were taken (40 μl whole blood) serially or from mice sacrificed at the end of the experiment. Tissues, such as tumors (e.g. from implantation, xenograft, or arising spontaneously), brain, heart, kidney, liver, lung and spleen were taken and flash frozen in liquid nitrogen or on dry ice and stored in −80° C. until time of assay. Four volumes of cold lysis buffer (20 mM HEPES, pH 7.5, 1 mM EDTA, 0.2 g/l Triton X-100® and 0.2 g/L sodium deoxycholate, supplemented with 1 mM DTT and 1 mM PMSF just before use) were added to the blood, which was dissolved by vortexing. For blood that was frozen before coagulation, a clear lysate was obtained. If coagulation occurred, homogenization was used as described below for tissue. Tissues were suspended in lysis buffer in 10 ml round bottom tubes and homogenized with PowerGen 125® (Fisher Scientific) for four seconds at highest power while submerged in an ice-water bath. This step was repeated after a few seconds, as necessary. The lysate was used right away or else flash frozen and stored at −80° C. until assay time. Eighty microliters (80 μl) of lysate (containing 5 mg tissue/ml lysate for TK and kGDH, 0.5 mg/ml for G6PDH) were put directly in individual wells of a 96-well clear-bottomed assay plate. Twenty microliters (20 μl) of 5× reaction mix was added to initiate each enzymatic reaction.
# Each reaction was monitored for the appearance of NADH (for transketolase, alpha-ketoglutarate dehydrogenase, pyruvate dehydrogenase) or NADPH (for glucose-6-phosphate dehydrogenase) at room temperature in a fluorescent plate reader with excitation at 340 nm and emission at 470 nm in kinetic mode. The velocity was determined by the slope of the initial linear range of increasing fluorescence, expressed in fluorescent units (FU)/min. The protein concentration in the lysate was determined using Bradford assays (BioRad) with BSA as a standard. The enzymatic velocity was normalized by the total protein concentration for inter-sample comparison. To obtain reliable results across samples, similar starting protein concentrations were prepared (within approximately 30%) so that the normalized velocity required only small adjustments. This was achieved by weighing the tissue and putting in lysis buffer so that the suspensions contained the same amount of tissue/ml lysis buffer for all samples.
# For TK, 15 μl of 5× assay buffer containing final concentrations of 50 mM HEPES, 40 mM KCl, 2.5 mM MgCl2, 5 mM NaArsenate, 1 mM NAD, 2 unit/ml glyceraldehydes-3-phosphate dehydrogenase (GAPDH) was added to 80 μl of lysate. Reaction kinetics were monitored on a fluorescent plate reader to allow any possible background activity via GAPDH to burn out. Then 5 μl of substrate mix containing final concentrations of 0.5 mM ribose-5-phosphate and 0.5 mM xylulose-5-phosphate was added to initiate the reaction. The reaction kinetics were monitored using a fluorescent plate reader, and the slope of the initial linear range was recorded as the velocity of the reaction (FU/min). See FIG. 1 for the reaction scheme.
# To investigate the amount of in vivo enzyme inhibition following treatment with an inhibitor, we administered a single dose of N3PT (100 mg/kg, intraperitoneally [i.p.]) and blood, spleen and brain samples were collected at various times from 0-120 hours after dosing. The enzymatic activities were determined as described in Example 1. TK activity was measured in blood and spleen. Because TK activity in the brain is below the detection limit of the assay, kGDH activity was measured in brain samples. Measurements were taken at various time intervals
# We measured enzyme activity in an expanded panel of tissues from mice treated with N3PT or OxyT for 11 days i.p., twice per day. Samples were taken from tumors, blood, brain, heart, kidney, lung and spleen, and TK, kGDH and G6PDH activities were determined as described above.
# [1] = target: T2, glucose-6-phosphate dehydrogenase (G6PDH) (Mus musculus, UniProt Q00612); test: Glucose-6-phosphate dehydrogenase activity in tissues of treated mice (fluorescence NADPH assay); assay type: in vivo; conditions: 11 days i.p. twice per day, various organs
# T2 construct: from tissue; host or cells: mouse tumor, blood, brain, heart, kidney, liver, lung, spleen (crude lysates)
# T2 sequence (Q00612 whole entry): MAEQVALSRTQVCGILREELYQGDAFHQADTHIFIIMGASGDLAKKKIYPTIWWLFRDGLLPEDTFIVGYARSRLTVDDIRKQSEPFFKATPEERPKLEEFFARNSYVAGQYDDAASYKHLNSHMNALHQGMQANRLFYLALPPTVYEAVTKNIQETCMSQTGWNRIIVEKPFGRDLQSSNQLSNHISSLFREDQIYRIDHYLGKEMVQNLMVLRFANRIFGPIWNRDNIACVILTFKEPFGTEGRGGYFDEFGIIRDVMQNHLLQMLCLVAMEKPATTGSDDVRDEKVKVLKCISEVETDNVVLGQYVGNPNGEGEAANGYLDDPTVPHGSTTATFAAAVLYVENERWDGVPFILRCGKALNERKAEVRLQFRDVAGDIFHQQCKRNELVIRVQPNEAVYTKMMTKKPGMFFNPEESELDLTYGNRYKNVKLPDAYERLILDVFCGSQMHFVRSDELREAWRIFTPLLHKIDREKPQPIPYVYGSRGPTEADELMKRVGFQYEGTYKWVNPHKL
# Experimental: Blood samples from mice were taken (40 μl whole blood) serially or from mice sacrificed at the end of the experiment. Tissues, such as tumors (e.g. from implantation, xenograft, or arising spontaneously), brain, heart, kidney, liver, lung and spleen were taken and flash frozen in liquid nitrogen or on dry ice and stored in −80° C. until time of assay. Four volumes of cold lysis buffer (20 mM HEPES, pH 7.5, 1 mM EDTA, 0.2 g/l Triton X-100® and 0.2 g/L sodium deoxycholate, supplemented with 1 mM DTT and 1 mM PMSF just before use) were added to the blood, which was dissolved by vortexing. For blood that was frozen before coagulation, a clear lysate was obtained. […]
# Each reaction was monitored for the appearance of NADH (for transketolase, alpha-ketoglutarate dehydrogenase, pyruvate dehydrogenase) or NADPH (for glucose-6-phosphate dehydrogenase) at room temperature in a fluorescent plate reader with excitation at 340 nm and emission at 470 nm in kinetic mode. The velocity was determined by the slope of the initial linear range of increasing fluorescence, expressed in fluorescent units (FU)/min. The protein concentration in the lysate was determined using Bradford assays (BioRad) with BSA as a standard. […]
# We measured enzyme activity in an expanded panel of tissues from mice treated with N3PT or OxyT for 11 days i.p., twice per day. […]
smiles,measurement,setting,value
"Cc1ncc(C[n+]2csc(CCO)c2C)c(=O)[nH]1 [OxyT, oxythiamine]",percent inhibition of TK activity in tumors,"transketolase (TK); 100 mg/kg, compared to vehicle control",40%
same,liver enzymatic (TK) activity,transketolase (TK); liver,hardly affected
same,G6PDH enzymatic activity following treatment,[1],no significant decrease
